The record followed here is patent US8361968B2 (Takeda Pharmaceutical Company Limited, priority 2002, dated 2013).

The target of the assay is hOT7T175 (Homo sapiens, UniProt Q969F8, L364H). Briefly: Intracellular Ca ion level-increasing activity using FLIPR in hOT7T175/CHO. It is filed as cell-based. More on the design: expressed in transfected cells; host or cells: CHO/dhfr- cells, obtained from ATCC. Particulars: relative, Metastin (1-54) = 1.

Numbered stars: 1 amine (or outer) side, 2 acyl side, 3 side chain; on linkers, the order of the positions; unused ones are H or OH. Square brackets hold non-standard residues; d marks the D form. Peptide text beside a SMILES is read from it. * marks the point of attachment. X4 = CC(C)C[C@H](NCCN*)C(=O)N[C@@H](CCCNC(=N)N)C(=O)N[C@@H](Cc1ccccc1)C(N)=O; Butyryl(4-indol-3-yl) = O=C(CCCc1c[nH]c2ccccc12)*; Phe(4-NH2) = Nc1ccc(C[C@H](N)C(=O)O)cc1; 2Nal = N[C@@H](Cc1ccc2ccccc2c1)C(=O)O; Arg(Me) = CNC(=N)NCCC[C@H](N)C(=O)O; Tryptamide = c1ccc2c(CCN*)c[nH]c2c1; d3Pal = N[C@H](Cc1cccnc1)C(=O)O; CO = O=C([*:1])[*:2]; azaGly = NNC(=O)O

hOT7T175, sequence (Q969F8 whole entry L364H): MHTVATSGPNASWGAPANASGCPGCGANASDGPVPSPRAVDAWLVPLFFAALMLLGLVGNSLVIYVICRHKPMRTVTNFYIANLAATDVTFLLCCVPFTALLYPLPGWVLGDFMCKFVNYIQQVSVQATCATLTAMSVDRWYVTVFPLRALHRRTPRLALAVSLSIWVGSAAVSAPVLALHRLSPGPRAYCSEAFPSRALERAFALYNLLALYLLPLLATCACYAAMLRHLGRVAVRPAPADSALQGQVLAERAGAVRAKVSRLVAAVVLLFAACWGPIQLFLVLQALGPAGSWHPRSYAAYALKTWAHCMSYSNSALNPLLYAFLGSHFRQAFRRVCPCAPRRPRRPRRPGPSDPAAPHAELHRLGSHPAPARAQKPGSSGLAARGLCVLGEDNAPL

`CNC(=N)NCCC[C@H](NC(=O)[C@H](CC(C)C)NC(=O)NNC(=O)[C@H](Cc1ccccc1)NC(=O)[C@H](CO)NC(=O)[C@H](CC(N)=O)NC(=O)[C@H](Cc1ccc(N)cc1)NC(=O)[C@H](CC(N)=O)NC(=O)[C@H](N)Cc1ccc(O)cc1)C(=O)N[C@@H](Cc1ccccc1)C(N)=O` [Compound No. 250, D-Tyr-Asn-Phe(4NH2)-Asn-Ser-Phe-AzaGly-Leu-Arg(Me)-Phe-NH2] (H-[dY]N[Phe(4-NH2)]NSF[azaGly]L[Arg(Me)]F-NH2): the “Specific Activity (intracellular Ca ion level-increasing activity)” value stood at 1.

Regarding `CNC(=N)NCCC[C@H](NC(=O)[C@H](CC(C)C)NC(=O)NNC(=O)[C@H](Cc1ccccc1)NC(=O)[C@H](CO)NC(=O)[C@H](CC(N)=O)NC(=O)[C@H](Cc1ccccc1)NC(=O)[C@H](N)Cc1ccc(O)cc1)C(=O)N[C@@H](Cc1ccccc1)C(N)=O` [Compound No. 254, D-Tyr-Phe-Asn-Ser-Phe-AzaGly-Leu-Arg(Me)-Phe-NH2] (H-[dY]FNSF[azaGly]L[Arg(Me)]F-NH2), the “Specific Activity (intracellular Ca ion level-increasing activity)” value turned out to be 1.

For the compound `CNC(=N)NCCC[C@H](NC(=O)[C@H](CC(C)C)NC(=O)NNC(=O)[C@H](Cc1ccccc1)NC(=O)[C@H](CO)NC(=O)[C@H](CC(N)=O)NC(=O)[C@H](Cc1ccc2ccccc2c1)NC(=O)[C@H](N)Cc1ccc(O)cc1)C(=O)N[C@@H](Cc1ccccc1)C(N)=O` [Compound No. 255, D-Tyr-Nal(2)-Asn-Ser-Phe-AzaGly-Leu-Arg(Me)-Phe-NH2] (H-[dY][2Nal]NSF[azaGly]L[Arg(Me)]F-NH2), the “Specific Activity (intracellular Ca ion level-increasing activity)” value worked out at 1.

With `CNC(=N)NCCC[C@H](NC(=O)[C@H](CC(C)C)NC(=O)NNC(=O)[C@H](Cc1ccccc1)NC(=O)[C@H](CO)NC(=O)[C@H](CC(N)=O)NC(=O)[C@H](Cc1ccccc1)NC(=O)[C@H](N)Cc1cccnc1)C(=O)N[C@@H](Cc1ccccc1)C(N)=O` [Compound No. 256, D-Pya(3)-Phe-Asn-Ser-Phe-AzaGly-Leu-Arg(Me)-Phe-NH2] (H-[d3Pal]FNSF[azaGly]L[Arg(Me)]F-NH2), the “Specific Activity (intracellular Ca ion level-increasing activity)” value was determined as 1.

For `CNC(=N)NCCC[C@H](NC(=O)[C@H](CC(C)C)NC(=O)NNC(=O)[C@H](Cc1ccccc1)NC(=O)[C@H](CO)NC(=O)[C@H](CC(N)=O)NC(=O)[C@H](Cc1ccccc1)NC(=O)[C@@H](CC(N)=O)NC(=O)[C@H](N)Cc1ccc(O)cc1)C(=O)N[C@@H](Cc1ccccc1)C(N)=O` [Compound No. 257, D-Tyr-D-Asn-Phe-Asn-Ser-Phe-AzaGly-Leu-Arg(Me)-Phe-NH2] (H-[dY][dN]FNSF[azaGly]L[Arg(Me)]F-NH2), the “Specific Activity (intracellular Ca ion level-increasing activity)” value came to 3.

On to `CNC(=N)NCCC[C@H](NC(=O)[C@H](CC(C)C)NC(=O)NNC(=O)[C@H](Cc1ccccc1)NC(=O)[C@H](CO)NC(=O)[C@H](CC(N)=O)NC(=O)[C@H](Cc1c[nH]c2ccccc12)NC(=O)[C@H](CC(N)=O)NC(=O)[C@H](N)Cc1cccnc1)C(=O)N[C@@H](Cc1ccccc1)C(N)=O` [Compound No. 258, D-Pya(3)-Asn-Trp-Asn-Ser-Phe-AzaGly-Leu-Arg(Me)-Phe-NH2] (H-[d3Pal]NWNSF[azaGly]L[Arg(Me)]F-NH2), for which the “Specific Activity (intracellular Ca ion level-increasing activity)” value was found to be 2.

As for `CNC(=N)NCCC[C@H](NC(=O)[C@H](CC(C)C)NC(=O)NNC(=O)[C@H](Cc1ccccc1)NC(=O)[C@H](CO)NC(=O)[C@H](CC(N)=O)NC(=O)[C@H](Cc1c[nH]c2ccccc12)NC(=O)[C@H](CC(N)=O)NC(=O)[C@@H](C)N)C(=O)N[C@@H](Cc1ccccc1)C(N)=O` [Compound No. 259, D-Ala-Asn-Trp-Asn-Ser-Phe-AzaGly-Leu-Arg(Me)-Phe-NH2] (H-[dA]NWNSF[azaGly]L[Arg(Me)]F-NH2), the “Specific Activity (intracellular Ca ion level-increasing activity)” value is 1.

For the compound `CC(C)C[C@H](NCCNC(=O)[C@H](Cc1ccccc1)NC(=O)[C@H](CO)NC(=O)[C@H](CC(N)=O)NC(=O)[C@H](Cc1c[nH]c2ccccc12)NC(=O)[C@H](CC(N)=O)NC(=O)[C@@H](N)Cc1ccc(O)cc1)C(=O)N[C@@H](CCCNC(=N)N)C(=O)N[C@@H](Cc1ccccc1)C(N)=O` [Compound No. 261, Tyr-Asn-Trp-Asn-Ser-Phe-GlyΨ(CH2NH)Leu-Arg-Phe-NH2] (H-YNWNSF-X4; N-terminus assumed), the “Specific Activity (intracellular Ca ion level-increasing activity)” value is 1.

In the case of `CNC(=N)NCCC[C@H](NC(=O)[C@H](CC(C)C)NC(=O)NNC(=O)[C@H](Cc1ccccc1)NC(=O)[C@H](CO)NC(=O)[C@H](CC(N)=O)NC(=O)CCCc1c[nH]c2ccccc12)C(=O)N[C@@H](Cc1ccccc1)C(N)=O` [Compound No. 267, 4-(3-Indolyl)butyryl-Asn-Ser-Phe-AzaGly-Leu-Arg(Me)-Phe-NH2] ({Butyryl(4-indol-3-yl)}-NSF[azaGly]L[Arg(Me)]F-NH2), the “Specific Activity (intracellular Ca ion level-increasing activity)” value worked out at 2.

Take `CNC(=N)NCCC[C@H](NC(=O)[C@H](CC(C)C)NC(=O)NNC(=O)[C@H](Cc1ccccc1)NC(=O)[C@H](CO)NC(=O)[C@H](CC(N)=O)NC(=O)NCCc1c[nH]c2ccccc12)C(=O)N[C@@H](Cc1ccccc1)C(N)=O` [Compound No. 279, 2-(indol-3-yl)ethylcarbamoyl-Asn-Ser-Phe-AzaGly-Leu-Arg(Me)-Phe-NH2] ({Tryptamide-CO}-NSF[azaGly]L[Arg(Me)]F-NH2): the “Specific Activity (intracellular Ca ion level-increasing activity)” value turned out to be 5.

As for `CNC(=N)NCCC[C@H](NC(=O)[C@H](CC(C)C)NC(=O)NNC(=O)[C@H](Cc1ccccc1)NC(=O)[C@H](CO)NC(=O)[C@H](CC(N)=O)NC(=O)[C@@H](NC(=O)[C@@H](CC(N)=O)NC(=O)[C@H](N)Cc1ccc(O)cc1)[C@@H](C)O)C(=O)N[C@@H](Cc1ccccc1)C(N)=O` [Compound No. 284, D-Tyr-D-Asn-Thr-Asn-Ser-Phe-AzaGly-Leu-Arg(Me)-Phe-NH2] (H-[dY][dN]TNSF[azaGly]L[Arg(Me)]F-NH2), the “Specific Activity (intracellular Ca ion level-increasing activity)” value is reported as 1.

For the compound `CNC(=N)NCCC[C@H](NC(=O)[C@H](CC(C)C)NC(=O)NNC(=O)[C@H](Cc1ccccc1)NC(=O)[C@H](CO)NC(=O)[C@H](CC(N)=O)NC(=O)[C@H](Cc1c[nH]c2ccccc12)NC(=O)[C@@H](CO)NC(=O)[C@H](N)Cc1ccc(O)cc1)C(=O)N[C@@H](Cc1ccccc1)C(N)=O` [Compound No. 287, D-Tyr-D-Ser-Trp-Asn-Ser-Phe-AzaGly-Leu-Arg(Me)-Phe-NH2] (H-[dY][dS]WNSF[azaGly]L[Arg(Me)]F-NH2), the “Specific Activity (intracellular Ca ion level-increasing activity)” value is 2.

With `CNC(=N)NCCC[C@H](NC(=O)[C@H](CC(C)C)NC(=O)NNC(=O)[C@H](Cc1ccccc1)NC(=O)[C@H](CO)NC(=O)[C@H](CC(N)=O)NC(=O)[C@H](Cc1c[nH]c2ccccc12)NC(=O)[C@@H](Cc1c[nH]cn1)NC(=O)[C@H](N)Cc1ccc(O)cc1)C(=O)N[C@@H](Cc1ccccc1)C(N)=O` [Compound No. 288, D-Tyr-D-His-Trp-Asn-Ser-Phe-AzaGly-Leu-Arg(Me)-Phe-NH2] (H-[dY][dH]WNSF[azaGly]L[Arg(Me)]F-NH2), the “Specific Activity (intracellular Ca ion level-increasing activity)” value was found to be 1.

As to `CNC(=N)NCCC[C@H](NC(=O)[C@H](CC(C)C)NC(=O)NNC(=O)[C@H](Cc1ccccc1)NC(=O)[C@H](CO)NC(=O)[C@H](CC(N)=O)NC(=O)[C@H](Cc1c[nH]c2ccccc12)NC(=O)[C@H](N)Cc1cccnc1)C(=O)N[C@@H](Cc1ccccc1)C(N)=O` [Compound No. 289, D-Pya(3)-Trp-Asn-Ser-Phe-AzaGly-Leu-Arg(Me)-Phe-NH2] (H-[d3Pal]WNSF[azaGly]L[Arg(Me)]F-NH2), the “Specific Activity (intracellular Ca ion level-increasing activity)” value amounted to 1.
